Source: PubChem BioAssay AID2060892 (Molecular Pharmacology Branch, DTP, NCI, 2025)

Tested on: HOP-62 complex spheroids with HUVEC/MSC, viability
Test: Anticancer human tumor HOP-62 cell line growth inhibition [RAS];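 note: spheroids exposed to agents for seven days before readout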;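 for viability, T/C: 100% = DMSO vehicle control viability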
Conditions: for IC50: curve of first compound; for viability, T/C: stronger effect = lower value
Excerpt: RAS pathway inhibitors in Combinations in Complex Spheroids
A high-throughput screen of multi-cell type tumor spheroids was designed to identify active combinations of RAS pathway inhibitors and targeted small molecules. Complex spheroids include a stromal component modeled by human endothelial cells (HUVEC) and fibroblasts modeled by human mesenchymal stem cells (MSCs). The concentration ranges selected for each drug and investigational agent were based upon clinically achievable concentrations if the clinical Cmax of the agent was known.
Compounds. The drugs and investigational agents: abemaciclib (NSC768073), cobimetinib (NSC768068), divarasib (GDC6063, NSC841802), docetaxel (NSC628503), GDC-1971 (RLY-1971, NSC841576), gemcitabine (NSC613327), inavolisib (NSC800729), ipatasertib (NSC767898), KB-0742 (NSC834161), MRTX-1133 (NSC836407), osimertinib (NSC779217), RMC-4630 (NSC839698), RMC-6236 (NSC851965), RMC-6291 (NSC852671), Ro-3306 (NSC812927), sapanisertib (NSC764658), SN-38 (NSC673596), staurosporine (NSC755774), SY5609 (NSC837396), and tovorafenib (DAY101, NSC766906), were obtained from the National Cancer Institute (NCI) Developmental Therapeutics Program Chemical Repository. The FDA-approved anticancer drug set is available from the NCI Developmental Therapeutics Program. […] The stock solutions were prepared in dimethyl sulfoxide (DMSO, Sigma-Aldrich, St. Louis, MO, cat. D2650) at 800-fold the tested concentration and stored at -70 degrees C prior to their use. All drugs and investigational agents were tested over a range starting from a high concentration at or near the clinical Cmax and decreasing in half-log increments. If the clinical Cmax for an agent had not been determined, the highest concentration tested was 10 microM.
Cell Culture. All cells were maintained in an incubator at 37 degrees C and 5% CO2 with 95% humidity. The PDC lines were cultured according to standard operating procedures established by the NCI PDMR. All PDCs were thawed and cultured in Matrigel-coated flasks prepared with a working solution of 1X Ham's F-12 nutrient mix, without supplementation (Invitrogen, Waltham, MA, cat. 11765054), 100 U/mL penicillin-streptomycin (Invitrogen, cat. 15140122), and 2.5% Matrigel (Corning Inc., Corning, NY, cat. 354248) for the first three passages. The 362531-283-R-J2-PDC and 782815-120-R-J1-PDC lines were cultured in 6C/Colon 1B media, which includes advanced DMEM/F-12 (Thermo Fisher Scientific, cat. 12634028), 10 mM HEPES (Thermo Fisher Scientific, cat. 15630080), 1X GlutaMAX supplement (Thermo Fisher Scientific, cat. 35050061), 0.1 mg/mL primocin (InvivoGen, San Diego, CA, cat. ant-pm-2), 10% defined fetal bovine serum, heat inactivated (HyClone Laboratories Inc., Logan, UT, cat. SH30070.03HI), 50% L-WRN conditioned media (ATCC, cat. CRL-3276), 1.25 mM N-Acetyl-L-cysteine (Sigma-Aldrich, cat. A9165), 10 mM nicotinamide (Sigma-Aldrich, cat. N0636), 1X B-27 supplement (Thermo Fisher Scientific, cat. 17504044), 1X N-2 supplement (Thermo Fisher Scientific, cat. 17502048), 50 ng/mL human EGF (Thermo Fisher Scientific, cat. PHG0311), and 10 microM Y-27632 dihydrochloride (Tocris Bioscience, cat. 1254). The K12877-001-R-J1-PDC line was cultured in 6I media, which includes all 6C/Colon 1B media plus 10 ng/mL human FGF-10 (PeproTech, cat. 100-26), 1 ng/mL human FGF-2 (PeproTech, cat. 100-18B), 1 µM prostaglandin E2 (Tocris Bioscience, cat. 2296), […] hydrocortisone (Sigma-Aldrich, cat. H4001), and […] bovine insulin (Sigma-Aldrich, cat. I6634). The K86415-001-R-J1-PDC line was cultured in 6D media, which includes all 6C/Colon 1B media components minus the L-WRN conditioned media. The 485176-168-R4-J1-PDC was cultured in PANC media, which includes all 6C/Colon 1B media plus 100 ng/mL human FGF-10 (PeproTech, cat. 100-26), 500 nM SB-431542 (Selleckchem, cat. S1067), and 10 nM gastrin (Tocris Bioscience, cat. 3006). […]

[1] = second compound 0.0316 µM, first compound 0.0316 µM
[2] = second compound 0.0316 µM, first compound 0.1 µM
[3] = second compound 0.0316 µM, first compound 0.316 µM
[4] = second compound 0.0316 µM, first compound 1 µM
[5] = second compound 0.1 µM, first compound 0.0316 µM
[6] = second compound 0.1 µM, first compound 0.1 µM
[7] = second compound 0.1 µM, first compound 0.316 µM
[8] = second compound 0.1 µM, first compound 1 µM
[9] = second compound 0.316 µM, first compound 0.0316 µM
[10] = second compound 0.316 µM, first compound 0.1 µM
[11] = second compound 0.316 µM, first compound 0.316 µM
[12] = second compound 0.316 µM, first compound 1 µM
[13] = second compound 1 µM, first compound 0.0316 µM
[14] = second compound 1 µM, first compound 0.1 µM
[15] = second compound 1 µM, first compound 0.316 µM
[16] = second compound 1 µM, first compound 1 µM
[17] = second compound 3.16 µM, first compound 0.0316 µM
[18] = second compound 3.16 µM, first compound 0.1 µM
[19] = second compound 3.16 µM, first compound 0.316 µM
[20] = second compound 3.16 µM, first compound 1 µM
[21] = second compound 10 µM, first compound 0.0316 µM
[22] = second compound 10 µM, first compound 0.1 µM
[23] = second compound 10 µM, first compound 0.316 µM
[24] = second compound 10 µM, first compound 1 µM

CCN1CCN(Cc2ccc(Nc3ncc(F)c(-c4cc(F)c5nc(C)n(C(C)C)c5c4)n3)nc2)CC1 + C#Cc1c(F)ccc2cc(O)cc(-c3ncc4c(N5CC6CCC(C5)N6)nc(OCC56CCCN5CC(F)C6)nc4c3F)c12
IC50 (second compound 0.0316 µM): > 1000 nM
IC50 (second compound 0.1 µM): > 1000 nM
IC50 (second compound 0.316 µM): > 1000 nM
IC50 (second compound 1 µM): > 1000 nM
IC50 (second compound 3.16 µM): > 1000 nM
IC50 (second compound 10 µM): < 3.16 nM
viability, T/C (second compound 0.0316 µM, first compound 0.00316 µM): 119%
viability, T/C (second compound 0.0316 µM, first compound 0.01 µM): 105%
viability, T/C [1]: 101%
viability, T/C [2]: 90.6%
viability, T/C [3]: 95.8%
viability, T/C [4]: 88.1%
viability, T/C (second compound 0.1 µM, first compound 0.00316 µM): 111%
viability, T/C (second compound 0.1 µM, first compound 0.01 µM): 103%
viability, T/C [5]: 89.8%
viability, T/C [6]: 91.6%
viability, T/C [7]: 89.3%
viability, T/C [8]: 66.2%
viability, T/C (second compound 0.316 µM, first compound 0.00316 µM): 109%
viability, T/C (second compound 0.316 µM, first compound 0.01 µM): 102%
viability, T/C [9]: 96.3%
viability, T/C [10]: 86%
viability, T/C [11]: 90.2%
viability, T/C [12]: 81.2%
viability, T/C (second compound 1 µM, first compound 0.00316 µM): 106%
viability, T/C (second compound 1 µM, first compound 0.01 µM): 99.6%
viability, T/C [13]: 90.7%
viability, T/C [14]: 82.3%
viability, T/C [15]: 83.2%
viability, T/C [16]: 67.7%
viability, T/C (second compound 3.16 µM, first compound 0.00316 µM): 84.5%
viability, T/C (second compound 3.16 µM, first compound 0.01 µM): 76%
viability, T/C [17]: 69%
viability, T/C [18]: 57.9%
viability, T/C [19]: 62.5%
viability, T/C [20]: 57.7%
viability, T/C (second compound 10 µM, first compound 0.00316 µM): 46.4%
viability, T/C (second compound 10 µM, first compound 0.01 µM): 48.3%
viability, T/C [21]: 38.3%
viability, T/C [22]: 45.7%
viability, T/C [23]: 45.2%
viability, T/C [24]: 42.5%

C[C@@H](NC(=O)c1ncnc(N)c1Cl)c1ncc(C(=O)Nc2cc(C(F)(F)F)c(Cl)cn2)s1 + C#Cc1c(F)ccc2cc(O)cc(-c3ncc4c(N5CC6CCC(C5)N6)nc(OCC56CCCN5CC(F)C6)nc4c3F)c12
IC50 (second compound 0.0316 µM): > 10000 nM
IC50 (second compound 0.1 µM): > 10000 nM
IC50 (second compound 0.316 µM): > 10000 nM
IC50 (second compound 1 µM): > 10000 nM
IC50 (second compound 3.16 µM): > 10000 nM
IC50 (second compound 10 µM): 457 nM
viability, T/C [1]: 109%
viability, T/C [2]: 105%
viability, T/C [3]: 101%
viability, T/C [4]: 102%
viability, T/C (second compound 0.0316 µM, first compound 3.16 µM): 92.6%
viability, T/C (second compound 0.0316 µM, first compound 10 µM): 78.6%
viability, T/C [5]: 110%
viability, T/C [6]: 113%
viability, T/C [7]: 105%
viability, T/C [8]: 102%
viability, T/C (second compound 0.1 µM, first compound 3.16 µM): 96.8%
viability, T/C (second compound 0.1 µM, first compound 10 µM): 75.4%
viability, T/C [9]: 114%
viability, T/C [10]: 101%
viability, T/C [11]: 96.6%
viability, T/C [12]: 104%
viability, T/C (second compound 0.316 µM, first compound 3.16 µM): 97.6%
viability, T/C (second compound 0.316 µM, first compound 10 µM): 62.8%
viability, T/C [13]: 117%
viability, T/C [14]: 97.9%
viability, T/C [15]: 91.1%
viability, T/C [16]: 94.1%
viability, T/C (second compound 1 µM, first compound 3.16 µM): 88.6%
viability, T/C (second compound 1 µM, first compound 10 µM): 65.4%
viability, T/C [17]: 83.2%
viability, T/C [18]: 78.7%
viability, T/C [19]: 77.1%
viability, T/C [20]: 77.4%
viability, T/C (second compound 3.16 µM, first compound 3.16 µM): 73.4%
viability, T/C (second compound 3.16 µM, first compound 10 µM): 58.4%
viability, T/C [21]: 51.9%
viability, T/C [22]: 46.8%
viability, T/C [23]: 54.1%
viability, T/C [24]: 49.9%
viability, T/C (second compound 10 µM, first compound 3.16 µM): 43.4%
viability, T/C (second compound 10 µM, first compound 10 µM): 33.7%
